Measured values published in ChEMBL document CHEMBL1131184, “Novel CDC25A phosphatase inhibitors from pyrolysis of 3-alpha-azido-B-homo-6-oxa-4-cholesten-7-one on silica gel” (J Med Chem, 1998).
pIC50: −log10 of the molar value.

Molecular target: T1, M-phase inducer phosphatase 1 (Homo sapiens, UniProt P30304)
T1 sequence (P30304 whole entry): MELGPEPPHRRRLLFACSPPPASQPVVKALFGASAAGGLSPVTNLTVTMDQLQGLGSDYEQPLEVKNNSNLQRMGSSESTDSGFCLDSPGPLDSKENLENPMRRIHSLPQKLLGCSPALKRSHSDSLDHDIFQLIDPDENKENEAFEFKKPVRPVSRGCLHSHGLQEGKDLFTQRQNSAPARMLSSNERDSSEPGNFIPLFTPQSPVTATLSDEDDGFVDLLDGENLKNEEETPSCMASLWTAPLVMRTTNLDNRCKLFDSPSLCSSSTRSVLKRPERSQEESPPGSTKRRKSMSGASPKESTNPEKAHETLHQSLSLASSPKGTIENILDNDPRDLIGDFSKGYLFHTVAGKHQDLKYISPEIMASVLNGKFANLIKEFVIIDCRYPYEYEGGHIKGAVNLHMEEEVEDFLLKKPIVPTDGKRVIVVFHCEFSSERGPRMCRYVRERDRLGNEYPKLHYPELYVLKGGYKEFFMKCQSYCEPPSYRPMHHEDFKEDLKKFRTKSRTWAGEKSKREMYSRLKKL
Test: Compound was evaluated for the inhibition of Cdc25A phosphatase by using fluorescein diphosphate as substrate

Row | SMILES | pIC50
1 | C=C(CCCCC#N)[C@H]1CC[C@]2(C)[C@@H]([C@H](C)CCCC(C)C)CC[C@H]2[C@@H]1CC(=O)O | 5.66
2 | CC(C)CCCC(C)[C@H]1CC[C@H]2[C@@H]3CC(=O)O[C@](C)(CC/C=C\C#N)[C@H]3CC[C@]12C (stereo not given in full) | < 4.30
3 | CC(C)CCCC(C)[C@H]1CC[C@H]2[C@@H]3CC(=O)O[C@@](C)(CC/C=C\C#N)[C@H]3CC[C@]12C (stereo not given in full) | 4.88

Second part, the compound after the results:

Row | pIC50 | SMILES
4 | 4.62 | C/C(=C\C/C=C\C#N)[C@H]1CC[C@]2(C)[C@@H](C(C)CCCC(C)C)CC[C@H]2[C@@H]1CC(=O)O (stereo not given in full)
5 | 5.01 | C=C(CC/C=C\C#N)[C@H]1CC[C@]2(C)[C@@H](C(C)CCCC(C)C)CC[C@H]2[C@@H]1CC(=O)O (stereo not given in full)
